Measured values from US7772226B2, “Condensed imidazole derivatives” (Eisai R&D Management Co., Ltd., priority 2002, dated 2010).

Key:
[1] = biological target: T1, Porcine kidney-derived DPP-IV (Sus scrofa, UniProt P22411); experiment: DPPIV-inhibiting Activity Assay; assay type: biochemical; conditions: substrate Gly-Pro-p-nitroanilide 0.33 mM, absorbance at 405 nm
T1 construct: Porcine kidney-derived DPP-IV was dissolved in a reaction buffer; from tissue; host or cells: porcine kidney
Method: DPPIV-inhibiting Activity Assay
Porcine kidney-derived DPP-IV was dissolved in a reaction buffer (50 mM Tris-HCl (pH 7.4)/0.1% BSA) at a concentration of […]. After 110 μl of this solution had been combined with 15 μl of an agent, the mixture was incubated at room temperature for 20 minutes. 25 μl of 2 mM Gly-Pro-p-nitroanilide was added (to a final concentration of 0.33 mM) to the solution to initiate the enzyme reaction. The reaction time was 20 minutes. 25 μl of 1N phosphoric acid solution was added to the reaction solution to quench the reaction.

[2] = test system: male C57BL/6N mice; experiment: Acceptable Timing of Administration in In Vivo Test; conditions: oral; given simultaneously with vs one hour before glucose loading (2 g/kg); improvement factor for glucose tolerance compared
Method: Acceptable Timing of Administration in In Vivo Test
The respective tests described below were carried out in combination with the in vivo test (administration before 0.5 hour) as described in Assay Example 2:
1. A test compound is administered simultaneously with glucose loading (2 g/kg) (the test compound is suspended in an aqueous solution of 0.5% methyl cellulose; the solution is combined with an equal volume of a glucose solution; and the mixture is administered orally at a dose of 10 ml/kg);
2. A test compound is administered one hour before glucose loading (2 g/kg) (the test compound suspended in an aqueous solution of 0.5% methyl cellulose is administered orally one hour before the oral administration of the glucose solution; each is given orally at a dose of 10 ml/kg).
The improvement factor for glucose tolerance is estimated in each test.

[3] = test system: male Wistar rats; experiment: Effect of a Test Compound on the Blood Glucose Level of Fasted Male Wistar Rats; assay type: in vivo; conditions: oral dose of 10-30 (mg/kg), 0.5, 1 and 3 hours after administration, compared with control group treated with the medium alone
Method: Purpose: Effect of a Test Compound on the Blood Glucose Level of Fasted Male Wistar Rats
Animal: male Wistar rats (purchased from Charles River Japan, Inc.)
A test compound was suspended in 0.5% methyl cellulose (MC) solution and administered orally at a dose of 5 mL/kg. The control group was treated with a 0.5% MC solution. The solution was administered orally at a dose of 5 mL/kg.
Immediately before administering a test compound or 0.5% MC solution, and 0.5, 1, and 3 hours after the administration, without anesthetic the caudal vein was lightly cut with a razor blade to let the blood out. 10 μL of blood was collected and combined with 140 μL of 0.6 M perchloric acid solution. The sample was centrifuged at 3000 g at 4° C. for 10 minutes and the resultant supernatant was assayed with the Glucose CII TEST WAKO (Wako Pure Chemical Industries).

T1 sequence (P22411 whole entry): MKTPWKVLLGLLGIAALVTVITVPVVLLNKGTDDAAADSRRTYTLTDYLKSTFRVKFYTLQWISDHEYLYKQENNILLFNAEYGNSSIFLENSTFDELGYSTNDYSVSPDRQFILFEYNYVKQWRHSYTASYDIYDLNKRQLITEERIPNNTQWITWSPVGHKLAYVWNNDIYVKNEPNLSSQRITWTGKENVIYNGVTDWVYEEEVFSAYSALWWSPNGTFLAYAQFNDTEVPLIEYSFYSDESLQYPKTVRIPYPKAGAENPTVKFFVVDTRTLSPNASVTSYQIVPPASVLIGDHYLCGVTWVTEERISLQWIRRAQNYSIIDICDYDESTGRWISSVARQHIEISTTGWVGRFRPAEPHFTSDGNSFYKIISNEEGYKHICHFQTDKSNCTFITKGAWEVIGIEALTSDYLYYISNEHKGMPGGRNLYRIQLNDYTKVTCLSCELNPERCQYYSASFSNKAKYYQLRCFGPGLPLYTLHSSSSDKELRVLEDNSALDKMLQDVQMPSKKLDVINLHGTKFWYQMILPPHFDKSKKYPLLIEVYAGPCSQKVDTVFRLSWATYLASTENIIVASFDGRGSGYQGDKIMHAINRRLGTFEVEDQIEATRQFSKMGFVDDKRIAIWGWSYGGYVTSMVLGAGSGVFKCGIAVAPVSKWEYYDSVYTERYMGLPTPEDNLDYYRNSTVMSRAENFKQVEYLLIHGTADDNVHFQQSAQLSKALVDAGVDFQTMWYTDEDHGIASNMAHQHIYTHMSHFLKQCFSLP

Molecule	IC50 [1] [nM]	range of acceptable timing of administration [2]	change in the blood glucose level [3]
Methyl 2-[7-(2-butynyl)-1-methyl-6-oxo-8-(piperazin-1-yl)-6,7-dihydro-1H-purin-2-yloxy]phenylacetate trifluoroacetate [Example 4]	211	–	–
CC#CCn1c(N2CCNCC2)nc2cnn(C)c(=O)c21 [Example 119, 3-(2-Butynyl)-5-methyl-2-(piperazin-1-yl)-3,5-dihydroimidazo[4,5-d]pyridazin-4-one]	–	sufficiently wide ranges of acceptable timing of administration	no significant change
CC#CCn1c(N2CCCC(N)C2)nc2cnn(C)c(=O)c21.O=C(O)C(F)(F)F (stereo not shown) [Example 120, 2-(3-Aminopiperidin-1-yl)-3-(2-butynyl)-5-methyl-3,5-dihydroimidazo[4,5-d]pyridazin-4-one trifluoroacetate]	–	sufficiently wide ranges of acceptable timing of administration	no significant change
CC#CCn1c(N2CCNCC2)nc2cnn(Cc3ccccc3C#N)c(=O)c21.O=C(O)C(F)(F)F [Example 267, 2-[3-(2-Butynyl)-4-oxo-2-(piperazin-1-yl)-3,4-dihydroimidazo[4,5-d]pyridazin-5-ylmethyl]benzonitrile trifluoroacetate]	–	sufficiently wide ranges of acceptable timing of administration	no significant change
CC#CCn1c(N2CCNCC2)nc2nc(C#N)n(Cc3ccccc3C#N)c(=O)c21.Cl [Example 229, 7-(2-Butynyl)-1-(2-cyanobenzyl)-6-oxo-8-(piperazin-1-yl)-6,7-dihydro-1H-purine-2-carbonitrile hydrochloride]	–	sufficiently wide ranges of acceptable timing of administration	no significant change
CC#CCn1c(N2CCNCC2)nc2nc(C#N)n(C)c(=O)c21.O=C(O)C(F)(F)F [Example 82, 7-(2-Butynyl)-2-cyano-1-methyl-8-(piperazin-1-yl)-1,7-dihydropurin-6-one trifluoroacetate]	–	sufficiently wide ranges of acceptable timing of administration	no significant change
CC#CCn1c(N2CCNCC2)nc2nc(Oc3ccccc3C(N)=O)n(C)c(=O)c21 [Example 122, 2-[7-(2-Butynyl)-1-methyl-6-oxo-8-(piperazin-1-yl)-6,7-dihydro-1H-purin-2-yloxy]benzamide]	–	sufficiently wide ranges of acceptable timing of administration	no significant change
